{
  "source": "patent US11446287B2",
  "about": "“Compounds and methods for EP300 or CBP modulation and indications therefor” (Opna Immuno-Oncology SA, priority 2019, dated 2022)",
  "data": [
    {"target": "T1, Recombinant human EP300 containing the bromodomain (EP300-BD (1040-1161)) (Homo sapiens, UniProt Q09472)", "T1 construct": "Recombinant human EP300 bromodomain (EP300-BD (1040-1161)); made in house; host or cells: E. coli BL21-CodonPlus (DE3), modified pET vector", "T1 sequence (Q09472 1040-1161)": "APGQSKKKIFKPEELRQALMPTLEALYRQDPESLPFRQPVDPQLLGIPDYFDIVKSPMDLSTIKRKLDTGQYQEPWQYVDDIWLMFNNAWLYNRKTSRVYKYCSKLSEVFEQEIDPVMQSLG", "assay": "EP300 Alphascreen binding assay", "how_it_was_run": "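Displacement of a biotinylated acetyl-K56 histone H3 peptide from the N-His bromodomain construct (1040-1161) measured by AlphaScreen proximity, beads at 7.5 μg/ml final, read 60 min after addition. Protein, peptide and compound first incubated 1 h at room temperature, pH 7.5 HEPES buffer; IC50 by four-parameter logistic fit.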", "units": {"IC50": "nM"}, "values": [
      {"smiles": "COc1ccc(CC(=O)O)cc1-c1cn(-c2ccc(F)cc2F)c2ncc(-c3c(C)noc3C)cc12", "note": "[P-0443, 2-(3-(1-(2,4-difluorophenyl)-5-(3,5-dimethylisoxazol-4-yl)-1H-pyrrolo[2,3-b]pyridin-3-yl)-4-methoxyphenyl)acetic acid]", "IC50": "0.1 to 1000"},
      {"smiles": "Cc1noc(C)c1-c1cnc2c(c1)c(-c1cc(F)c(C(=O)O)cc1OC(F)(F)F)cn2-c1ccc(C2CC2)nc1", "note": "[P-0444, 4-(1-(6-cyclopropylpyridin-3-yl)-5-(3,5-dimethylisoxazol-4-yl)-1H-pyrrolo[2,3-b]pyridin-3-yl)-2-fluoro-5-(trifluoromethoxy)benzoic acid]", "IC50": "0.1 to 1000"},
      {"smiles": "CCOc1cc(C(=O)O)c(F)cc1-c1cn(C2CCN(C(=O)C(C)(C)C)CC2)c2ncc(-c3c(C)noc3C)cc12", "note": "[P-0445, 4-(5-(3,5-dimethylisoxazol-4-yl)-1-(1-pivaloylpiperidin-4-yl)-1H-pyrrolo[2,3-b]pyridin-3-yl)-5-ethoxy-2-fluorobenzoic acid]", "IC50": "0.1 to 1000"},
      {"smiles": "CCOc1cc(C(=O)O)c(F)cc1-c1cn(C2CCN(CCC#N)CC2)c2ncc(-c3c(C)noc3C)cc12", "note": "[P-0446, 4-(1-(1-(2-cyanoethyl)piperidin-4-yl)-5-(3,5-dimethylisoxazol-4-yl)-1H-pyrrolo[2,3-b]pyridin-3-yl)-5-ethoxy-2-fluorobenzoic acid]", "IC50": "0.1 to 1000"},
      {"smiles": "CCOc1cc(C(=O)O)c(F)cc1-c1cn(C2CCN(C(=O)CO)CC2)c2ncc(-c3c(C)noc3C)cc12", "note": "[P-0447, 4-(5-(3,5-dimethylisoxazol-4-yl)-1-(1-(2-hydroxyacetyl)piperidin-4-yl)-1H-pyrrolo[2,3-b]pyridin-3-yl)-5-ethoxy-2-fluorobenzoic acid]", "IC50": "0.1 to 1000"},
      {"smiles": "CCc1onc(C)c1-c1cnc2c(c1)c(-c1c(Cl)cc(C(=O)O)cc1OC(F)(F)F)cn2-c1ccc(C2CC2)nc1", "note": "[P-0448, 3-chloro-4-(1-(6-cyclopropylpyridin-3-yl)-5-(5-ethyl-3-methylisoxazol-4-yl)-1H-pyrrolo[2,3-b]pyridin-3-yl)-5-(trifluoromethoxy)benzoic acid]", "IC50": "0.1 to 1000"},
      {"smiles": "Cc1nnn(C)c1-c1cnc2c(c1)c(-c1cccc(C(=O)O)c1)cn2[C@@H](C)c1ccccn1", "note": "[P-0449, (S)-3-(5-(1,4-dimethyl-1H-1,2,3-triazol-5-yl)-1-(1-(pyridin-2-yl)ethyl)-1H-pyrrolo[2,3-b]pyridin-3-yl)benzoic acid]", "IC50": "0.1 to 1000"}
    ]}
  ]
}
